Experimental data: patent publication US20060037085A1, “Animal model for fetal alcohol syndrome and methods of treatment” (priority 2004, published 2006)
Read-outs that look alike come from different tables or passages of the source.

Columns and labels:
[1] = tested on: Xenopus laevis tadpole brain; assay: Histological analysis of brain injury (coronal brain sections of tadpoles); conditions: tadpoles treated with alcohol
Source text: Histological analysis of brain injury. Embryos were fixed in 2% paraformaldehyde, dehydrated, embedded in paraffin. The embryos were sectioned coronally through the head and stained with hematoxylin and eosin.
The EF-1α transcript was detected as an internal control for equal RNA load.

[2] = tested on: Xenopus laevis embryos
Method: Midneurala stage embryos were kept in either the control 10% MSS medium or the same medium supplemented with 0.5% alcohol. The embryos were allowed to grow until the control embryos (no alcohol) reached the tadpole stage (stages 45-46). All the embryos were then fixed and their body length and gut morphologies were recorded.
Embryos were injected with pCMS, pCMS-mtPRDX5, pCMS-cpPRDX5 or pCMS-Catalase expression plasmid, and then maintained in medium with or without 0.5% alcohol. When the tadpoles of control group reached stages 45-46, all the tadpoles were fixed and their gut developmental stages and body lengths were measured and used for the correlation studies. […] Embryos were injected with pCMS, pCMS-mtPRDX5, or pCMS-Catalase expression plasmid, and then treated with or without alcohol as indicated. The expression of the gut markers was determined by RT-PCR.
We also examined the correlation between the stage of gut development and body length in each individual tadpole.

[3] = 0.5% alcohol stage 13 to 22, uninjected
[4] = 0.5% alcohol, pCMS vector-injected embryos

## CCO [Ethanol, ethanol]
[1]
  size of the forebrain area vs control: reduction in size of the forebrain area
[2]; [3]
  Body length (% no alcohol control): 87 ± 2.7 % no alcohol control
  Number of embryos in gut developmental stage 43: 8
  Number of embryos in gut developmental stage 44: 7
  Number of embryos in gut developmental stage 45: 2
  Number of embryos in gut developmental stage 46: 0
[2]; 0.5% alcohol stage 13 to 22, uninjected, scored when controls reached stages 45-46
  Number of embryos in gut developmental stage 42: 3
[2]; [4]
  Body length (% no alcohol control): 85 ± 3.1 % no alcohol control
  Number of embryos in gut developmental stage 42: 3
  Number of embryos in gut developmental stage 43: 7
  Number of embryos in gut developmental stage 44: 9
  Number of embryos in gut developmental stage 45: 1
  Number of embryos in gut developmental stage 46: 0
[2]; sustained exposure of alcohol from stage 13
  outcome of sustained alcohol exposure: caused the death of tadpoles at around stages 45-50
[2]; transient 0.5% alcohol exposure between stages 13-22
  gut maturation (looping pattern of the tadpole gut): significant delay in gut maturation
[2]; transient alcohol exposure, gut examined at stage 60
  gut morphology, alcohol-treated vs control groups: no difference
